Measurements published in patent publication US6489350B1, “Methods for treating neuropathic pain using heteroarylmethanesulfonamides” (Elan Pharmaceuticals, Inc., priority 1999, dated 2002).
“Also recorded” adds a separate entry of the source.

Key:
[1] = test system: Rats with Streptozotocin (STZ)-Induced Diabetes Mellitus and Consequent Diabetic Neuropathy; assay: Paw withdrawal force (mechanical hyperalgesia) in rats with streptozotocin-induced diabetes; assay type: in vivo, Male Wistar rats; details: for Paw withdrawal threshold force, Week 1 Mean: Week 1, before drug treatment (baseline); for Paw withdrawal threshold force, Week 2 Mean: Week 2, before drug treatment (baseline); for Paw withdrawal threshold force, Week 3 Mean: Week 3, before drug treatment (baseline); for Paw withdrawal threshold force, Week 4 Mean: Week 4, before drug treatment (baseline)
Protocol: Male Wistar rats (250-300 g), following an overnight fast, were made diabetic with 55 mg/kg i.p. streptozotocin (Sigma, St. Louis, Mo., USA). Tail ven blood was sampled 48 h later and glucose estimated by reflectance photometry (Reflocheck, Boehringer Mannheim). All STZ-treated rats had blood glucose >15 mmol/l and were included in the study. Animals were housed in boxes of three or four and maintained with food and water ad libitum for up to 6 weeks. non-diabetic control rats were housed in identical conditions. Each week (Friday) paw—pressure latency was measured as described immediately below.
A force was applied at a constant rate with a cone-shaped piston to the upper surface of the rat hindpaw until paw withdrawal; the force triggering withdrawal is measured as the “paw withdrawal force”. An arbitrary cut-off force of 240 g was adopted to preclude traumatic damage. Rats are trained such that latency is measured weekly, on Fridays.
At the start of week 5, drug treatments as defined for each of the groups set out below were commenced, such that 5 treatments preceded paw pressure testing. The injections and pressure test were timed so that, for each rat, the pressure test was made between 30 and 35 min after injection.
Monday of week 1 the rats were injected with streptozotocin and blood glucose determinations were made Wednesday of that week, on the Friday the 1st paw pressure test was performed. In weeks 2, 3, and 4 only paw pressure tests were performed on each of the Fridays. In week 5 treatments of groups C, D and E were begun with either zonisarnide (Groups C and D) or MK-801 (Group E) and paw pressure tests were performed on all groups on Friday.
Group B was given a single dose of zonisamide at 50 mg/kg on the Friday of week 6 and paw withdrawal force measured 30 min later.
Group D was maintained without treatment for week 6 (drug “washout”) and measured again on the Friday of week 6.
Data are means with standard deviations. Zonisamide was given once daily (p.o.) between 08:30 and 09:00 for 5 days during Week 5. MK-801 was given at 0.1 mg/kg i.p. twice daily (morning and evening). All measurements were made on Fridays between 10:30 and 13:30 hr. In Week 6, the designated “diabetic untreated” group (Group B) was given a single p.o. dose of 50 mg/kg zonisamide 2-3 h before measurement. For Week 6, drug treatment was withdrawn from Group D (last dose on Friday of week 5).

[2] = test system: formalin-induced hyperalgesia in rats; assay: Formalin test model in rats (paw flinches); assay type: in vivo, rat
Protocol: The formalin test model in rats was conducted based on the protocol developed and reported by Malmberg A. B. and Yaksh T. L. (1992) as an animal model of hyperalgesia.
The formalin pain test produces an “early” pain that rapidly rises and falls in intensity during the first five minutes after the injection, followed by a “late” pain, which begins about 15 minutes after the injection and persists for about an hour. It has been observed that this formalin-induced pain continues even after the nerves carrying pain signals have been blocked which implies that long-lasting pain is determined not only by sensory stimulation during the discomfort but also by brain processes that persist without continual priming.
Eight (8) animals received 100 mg/kg zonisamide via oral (gastric lavage tube) administration, and eight (8) animals received sterile water as a vehicle. On the morning of testing, a small metal band (0.5 g) was loosely placed around the right hind paw. After 1 hour, the rat was placed in a cylindrical plexiglass changer for adaptation. After one additional hour, the rat was then placed in a similar cylindrical chamber that was placed on the sensing pad of an automated formalin device that senses the movement of the metal band in the space above the area above the pad. The formalin test involved injecting 50 μl of 5% formalin into the dorsal surface of the right hindpaw. […] These flinches were counted automatically and continuously over the following one-hour interval. At one hour the animal was removed and sacrificed by carbon dioxide inhalation.
The results of the tests are presented in FIGS. 2A as summations at 5-minute intervals, and in 2B broken down into phase responses. (Phase I being the “early” pain response to the formalin injection and phase II, IIA and IIB being “late” phase parts of the facilitated response state discussed above and in the Detailed Description).

[3] = test system: formalin-evoked behavior in diabetic rats; details: 50 mg/kg i.p. 30 min pre-test; 5.0% formalin; both control and diabetic rats; cited from earlier work
[4] = Group C diabetic, zonisamide 20 mg/kg group
[5] = Group D diabetic, zonisamide 50 mg/kg group
[6] = 100 mg/kg orally prior to 5% formalin injection, vs water vehicle
[7] = Group E diabetic, MK-801 0.1 mg/kg group

NS(=O)(=O)Cc1noc2ccccc12 [zonisamide, 1,2-benzisoxazole-3-methanesulfonamide]
Effect on hyperalgesia (change in paw withdrawal force) ([1]; 20 mg/kg p.o. for 5 days, reduction in tolerated force still present and significant (p<0.0002)): attenuated this hyperalgesia
Effect on hyperalgesia (change in paw withdrawal force) ([1]; 50 mg/kg p.o. daily for 5 days, p=0.703, paired t-test): obliterated the change in paw withdrawal force; also recorded: increase in force necessary to evoke a hyperalgesic pain response
Activity against mechanical hyperalgesia (conclusion) ([1]; 4-5 weeks of STZ diabetes in rats, dose related): active against the mechanical hyperalgesia
Paw withdrawal threshold force, Week 6 Mean ([1]; Group B, previously untreated diabetic rats, single p.o. dose of 50 mg/kg in Week 6): 213.6 g
Paw withdrawal threshold force, Week 1 Mean [1, 4]: 212.2 g
Paw withdrawal threshold force, Week 2 Mean [1, 4]: 206.4 g
Paw withdrawal threshold force, Week 3 Mean [1, 4]: 199.6 g
Paw withdrawal threshold force, Week 4 Mean [1, 4]: 190.0 g
Paw withdrawal threshold force, Week 5 Mean ([1]; Group C diabetic, 20 mg/kg p.o. once daily for 5 days during Week 5): 195.0 g
Paw withdrawal threshold force, Week 1 Mean [1, 5]: 212.72 g
Paw withdrawal threshold force, Week 2 Mean [1, 5]: 208.9 g
Paw withdrawal threshold force, Week 3 Mean [1, 5]: 200.7 g
Paw withdrawal threshold force, Week 4 Mean [1, 5]: 191.5 g
Paw withdrawal threshold force, Week 5 Mean ([1]; Group D diabetic, 50 mg/kg p.o. once daily for 5 days during Week 5): 214.9 g
Paw withdrawal threshold force, Week 6 Mean ([1]; Group D diabetic, Week 6, drug washout, last 50 mg/kg dose on Friday of week 5): 186.2 g
Effect of withdrawal and washout of the drug on hyperalgesia ([1]; one week after treatment with 50 mg/kg for 5 days, p<0.002, 50 mg/kg): return of the hyperalgesia; also recorded: force required to cause a paw withdrawal reaction was reduced
Effect on mechanical hyperalgesia after a single dose ([1]; previously untreated diabetic rats, single 50 mg/kg dose, p<<0.0001, 50 mg/kg): obliterated the mechanical hyperalgesia; also recorded: increase in force necessary to evoke a hyperalgesic pain response
Effect on Phase I flinches [2, 6]: not significant effect
Effect on Phase II flinches [2, 6]: not significant effect
Effect on Phase IIA flinches [2, 6]: statistically significant effect; also recorded: significantly reduced
Effect on Phase IIB flinches [2, 6]: not significant effect
Behavioral deficits ([2]; 100 mg/kg orally, rats): No behavioral deficits were noted

NCC1(CC(=O)O)CCCCC1 [Gabapentin, 1-(aminomethyl)cyclohexaneacetic acid]
Flinching during phases 1 and 2 of the formalin test [3]: suppressed flinching

C[C@]12N[C@H](Cc3ccccc31)c1ccccc12 [MK-801, dizocilpine]
Paw withdrawal threshold force, Week 1 Mean [1, 7]: 214.9 g
Paw withdrawal threshold force, Week 2 Mean [1, 7]: 207.1 g
Paw withdrawal threshold force, Week 3 Mean [1, 7]: 200.0 g
Paw withdrawal threshold force, Week 4 Mean [1, 7]: 191.4 g
Paw withdrawal threshold force, Week 5 Mean ([1]; Group E diabetic, 0.1 mg/kg i.p. twice daily for 5 days during Week 5): 221.8 g
